Data reported in US7060834B2, “N-type calcium channel antagonists for the treatment of pain” (AstraZeneca AB, priority 2001, dated 2006).

What was measured:
N-type calcium channel = N-type calcium channel (Homo sapiens, UniProt Q00975); test: N-Channel FLIPR (Fluorescent Laser Imaging Plate Reader) assay; format: cell-based; conditions: inhibition of 80 mM K+ evoked calcium flux, differentiated IMR32 cells
[1] = system: formalin-induced nocifensive behaviours; test: Formalin test; format: in vivo, rats
Procedure: II. Formalin Test. The Formalin test assesses the inhibitory effects of orally administered N-type calcium channel antagonists on formalin-induced nocifensive behaviours in rats. The formalin test is a well established pain test (Dubuisson and Dennis, 1977; Wheeler-Aceto et al., 1990; Coderre et al., 1993). This test consists of two distinct phases of formalin-induced behavior. The first phase response, occurring between 0 to 5 minutes, is caused by acute nociception to the noxious chemical (formalin) injected into the paw. This is followed by a quiescent period of between 5 to 15 min post injection. A second phase response, occurring after 15 minutes and lasting up to 60 minutes, is caused by sensitization of the central neurons in the dorsal horn. Central sensitization augments the noxious afferent input and a stronger pain barrage is transmitted into the brain. Inhibition of the second phase response is indicative of a central mechanism of drug action. The procedure for the formalin test is as follows: male rats are placed in a Plexiglas chamber and observed for 30-45 min. to observe their baseline activity. Multiple groups of animals are pretreated with either vehicle or different doses of a test compound. Animals are dosed with the drug of interest either 40 min., if by the intraperitoneal route, or 90 min., if by the oral route, prior to injection of formalin into a hind paw (under the dorsal skin; 0.05 mL of sterile 5% formalin). The number of paw flinches and licks during first phase (0-5 min.) and second phase (20-35 min.) are scored and recorded. […] and lick responses are calculated as percentage of inhibition compared with the mean score of a saline control group. Drug potencies are expressed as the dose which causes 50% of the maximum inhibitory effect (“ID50”). Student t-tests are used for statistical analysis to determine the significance of drug effects. Compounds are considered active based on their ability to inhibit the flinch response.

chemo-nociception = conditions: phenylbenzoquinone-induced writhing and formalin test; cited from earlier work

N-type calcium channel, sequence (Q00975 whole entry): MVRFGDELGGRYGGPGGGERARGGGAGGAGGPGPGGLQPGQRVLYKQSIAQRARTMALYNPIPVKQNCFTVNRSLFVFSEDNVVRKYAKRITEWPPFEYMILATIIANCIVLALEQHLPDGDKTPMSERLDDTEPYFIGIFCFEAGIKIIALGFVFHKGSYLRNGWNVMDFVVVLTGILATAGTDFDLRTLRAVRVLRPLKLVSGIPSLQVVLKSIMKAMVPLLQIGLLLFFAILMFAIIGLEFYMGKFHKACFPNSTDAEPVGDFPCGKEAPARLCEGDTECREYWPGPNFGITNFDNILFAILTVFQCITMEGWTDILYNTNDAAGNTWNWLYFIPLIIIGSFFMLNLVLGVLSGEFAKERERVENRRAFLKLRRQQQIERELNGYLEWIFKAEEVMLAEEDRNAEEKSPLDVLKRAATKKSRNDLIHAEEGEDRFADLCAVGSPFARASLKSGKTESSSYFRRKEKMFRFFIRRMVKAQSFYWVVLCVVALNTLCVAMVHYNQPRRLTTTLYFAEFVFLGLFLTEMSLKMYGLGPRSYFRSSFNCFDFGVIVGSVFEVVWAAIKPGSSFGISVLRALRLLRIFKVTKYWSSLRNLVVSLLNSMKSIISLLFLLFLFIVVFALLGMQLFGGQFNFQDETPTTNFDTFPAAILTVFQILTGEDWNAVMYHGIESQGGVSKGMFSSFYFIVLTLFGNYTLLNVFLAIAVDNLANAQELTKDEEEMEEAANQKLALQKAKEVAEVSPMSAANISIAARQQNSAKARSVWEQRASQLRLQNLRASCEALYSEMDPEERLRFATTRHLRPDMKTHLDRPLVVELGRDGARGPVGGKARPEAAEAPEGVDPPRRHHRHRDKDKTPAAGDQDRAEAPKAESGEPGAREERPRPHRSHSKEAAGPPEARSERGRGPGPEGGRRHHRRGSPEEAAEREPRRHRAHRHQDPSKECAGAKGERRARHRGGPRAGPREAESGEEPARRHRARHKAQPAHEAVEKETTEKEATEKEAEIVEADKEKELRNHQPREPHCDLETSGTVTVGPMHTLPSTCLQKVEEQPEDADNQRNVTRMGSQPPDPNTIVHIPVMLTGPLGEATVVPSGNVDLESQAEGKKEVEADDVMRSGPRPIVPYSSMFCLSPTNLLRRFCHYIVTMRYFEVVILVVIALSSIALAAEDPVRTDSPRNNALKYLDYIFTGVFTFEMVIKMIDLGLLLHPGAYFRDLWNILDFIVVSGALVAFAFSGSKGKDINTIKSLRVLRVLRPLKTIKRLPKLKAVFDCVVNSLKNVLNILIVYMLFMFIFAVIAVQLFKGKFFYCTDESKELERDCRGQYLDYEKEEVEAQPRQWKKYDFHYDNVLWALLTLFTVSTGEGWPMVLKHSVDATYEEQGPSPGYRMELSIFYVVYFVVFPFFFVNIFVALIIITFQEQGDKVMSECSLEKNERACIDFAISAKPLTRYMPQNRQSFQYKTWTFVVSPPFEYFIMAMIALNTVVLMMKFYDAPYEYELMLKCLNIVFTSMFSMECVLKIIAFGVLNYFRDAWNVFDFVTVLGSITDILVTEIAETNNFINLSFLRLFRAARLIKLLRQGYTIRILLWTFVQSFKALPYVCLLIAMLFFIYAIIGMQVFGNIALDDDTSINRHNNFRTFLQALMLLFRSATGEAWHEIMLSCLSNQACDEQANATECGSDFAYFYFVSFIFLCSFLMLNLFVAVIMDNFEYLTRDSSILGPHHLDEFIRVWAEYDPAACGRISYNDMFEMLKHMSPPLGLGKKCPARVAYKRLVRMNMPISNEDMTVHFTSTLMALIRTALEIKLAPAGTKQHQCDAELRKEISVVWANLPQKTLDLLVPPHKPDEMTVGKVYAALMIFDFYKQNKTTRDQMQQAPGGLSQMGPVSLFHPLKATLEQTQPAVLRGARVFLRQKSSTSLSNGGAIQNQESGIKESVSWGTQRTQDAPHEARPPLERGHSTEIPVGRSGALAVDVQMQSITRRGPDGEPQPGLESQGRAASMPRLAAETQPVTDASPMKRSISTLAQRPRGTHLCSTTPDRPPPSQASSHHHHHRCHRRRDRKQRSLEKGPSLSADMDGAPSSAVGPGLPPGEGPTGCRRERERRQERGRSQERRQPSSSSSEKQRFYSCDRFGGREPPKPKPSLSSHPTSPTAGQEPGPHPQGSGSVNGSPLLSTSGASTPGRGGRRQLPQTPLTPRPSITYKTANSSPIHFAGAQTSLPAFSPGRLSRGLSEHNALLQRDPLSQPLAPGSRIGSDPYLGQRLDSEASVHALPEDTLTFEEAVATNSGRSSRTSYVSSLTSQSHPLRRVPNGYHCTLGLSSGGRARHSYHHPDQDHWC
N-type calcium channel, sequence (P54289 25-1103 partner): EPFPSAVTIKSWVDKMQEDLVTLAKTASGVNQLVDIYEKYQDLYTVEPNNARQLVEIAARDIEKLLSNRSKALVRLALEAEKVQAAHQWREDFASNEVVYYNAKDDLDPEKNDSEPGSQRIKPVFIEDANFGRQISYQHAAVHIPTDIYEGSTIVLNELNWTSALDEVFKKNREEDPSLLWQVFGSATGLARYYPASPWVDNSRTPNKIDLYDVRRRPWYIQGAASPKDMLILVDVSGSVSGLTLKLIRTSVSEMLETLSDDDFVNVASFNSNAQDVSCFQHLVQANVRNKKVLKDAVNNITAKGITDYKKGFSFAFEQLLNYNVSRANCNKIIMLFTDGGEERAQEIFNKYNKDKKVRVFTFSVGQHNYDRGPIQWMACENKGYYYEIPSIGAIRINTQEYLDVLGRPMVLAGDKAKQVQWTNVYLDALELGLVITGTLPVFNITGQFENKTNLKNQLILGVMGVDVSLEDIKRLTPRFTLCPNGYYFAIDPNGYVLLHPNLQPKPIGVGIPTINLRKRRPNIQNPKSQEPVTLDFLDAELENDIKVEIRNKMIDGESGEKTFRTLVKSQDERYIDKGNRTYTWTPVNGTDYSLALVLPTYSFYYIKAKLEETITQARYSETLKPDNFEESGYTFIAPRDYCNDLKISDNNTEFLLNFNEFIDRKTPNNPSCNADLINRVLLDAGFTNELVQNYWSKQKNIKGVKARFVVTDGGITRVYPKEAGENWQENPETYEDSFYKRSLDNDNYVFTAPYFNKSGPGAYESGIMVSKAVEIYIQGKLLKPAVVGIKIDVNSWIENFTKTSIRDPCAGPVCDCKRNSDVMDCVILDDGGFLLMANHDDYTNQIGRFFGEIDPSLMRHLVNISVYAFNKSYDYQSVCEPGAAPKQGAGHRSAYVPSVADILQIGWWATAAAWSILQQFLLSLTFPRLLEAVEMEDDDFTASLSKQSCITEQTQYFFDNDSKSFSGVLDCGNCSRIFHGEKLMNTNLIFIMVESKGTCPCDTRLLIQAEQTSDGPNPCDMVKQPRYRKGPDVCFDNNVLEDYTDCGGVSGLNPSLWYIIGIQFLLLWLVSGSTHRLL
N-type calcium channel, sequence (P54284 whole entry partner): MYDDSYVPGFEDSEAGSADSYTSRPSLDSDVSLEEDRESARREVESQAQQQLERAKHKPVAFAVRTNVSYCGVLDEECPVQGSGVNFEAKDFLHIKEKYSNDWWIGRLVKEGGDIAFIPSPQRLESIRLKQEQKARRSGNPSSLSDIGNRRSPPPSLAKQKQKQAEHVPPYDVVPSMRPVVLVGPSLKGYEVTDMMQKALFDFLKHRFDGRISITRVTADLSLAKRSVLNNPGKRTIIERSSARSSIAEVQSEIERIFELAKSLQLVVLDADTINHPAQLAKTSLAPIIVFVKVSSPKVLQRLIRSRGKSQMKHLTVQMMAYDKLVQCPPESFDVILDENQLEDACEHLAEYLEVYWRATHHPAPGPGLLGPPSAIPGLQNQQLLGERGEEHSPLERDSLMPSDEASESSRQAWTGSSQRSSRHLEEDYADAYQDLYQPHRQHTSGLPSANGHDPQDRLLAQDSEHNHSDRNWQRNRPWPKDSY

Row | IC50 (N-type calcium channel) | SMILES | other results
1 | 5870 nM | CC(C)(C)CNc1cc(Nc2ccc(F)c(Cl)c2)nc2ccccc12 [Example 2, N2(3-chloro-4-fluoro-phenyl)-N4(2,2-dimethyl-propyl)-quinoline-2,4-diamine] | Formalin test % inhibition (dose, time, route) ([1]; (76, 40, IP)): 39 (76, 40, IP) %
2 | 6870 nM | CC(C)(C)CNc1cc(Nc2ccc3ncsc3c2)nc2c(F)cccc12 [Example 11, N2-Benzothiazol-6-yl-N4(2,2-dimethyl-propyl)-8-fluoro-quinoline-2,4-diamine] | –
3 | 2820 nM | COc1ccc(Nc2cc(NCC(C)(C)C)c3cccc(F)c3n2)cc1OC [Example 8, N2(3,4-Dimethoxy-phenyl)-N4(2,2-dimethyl-propyl)-8-fluoro-quinoline-2,4-diamine] | –
4 | 670 nM | CC(C)(C)CNc1cc(Nc2ccccc2N2CCOCC2)nc2ccccc12 [Example 7, N4(2,2-dimethyl-propyl)-N2(2-morpholin-4-yl-phenyl)-quinoline-2,4-diamine] | Formalin test % inhibition (dose, time, route) ([1]; (59, 40, IP)): 24 (59, 40, IP) %
5 | 1720 nM | COc1ccc(Nc2cc(NCC(C)(C)C)c3ccccc3n2)cc1OC [Example 3, N2(3,4-dimethoxy-phenyl)-N4(2,2-dimethyl-propyl)-quinoline-2,4-diamine] | Formalin test % inhibition (dose, time, route) ([1]; (75, 40, IP)): 22 (75, 40, IP) %
6 | – | COc1ccccc1CC(=N)N1C[C@@H]2C(=O)CCC(c3ccccc3)(c3ccccc3)[C@@H]2C1 [RP 67,580] | analgesia (chemo-nociception): produced analgesia with potency comparable to that of morphine
